Assay results taken from patent publication EP1157985A1 (G.D. SEARLE & CO., priority 1996, dated 1997).
Counter-ions that a name gives are not always drawn. Like-named read-outs stand apart in the source and are kept apart here.

Columns and labels:
[1] = target: T1, Human fibrinogen receptor (αIIbβ3) (Homo sapiens, UniProt P05106+P08514); assay: Purified IIb/IIIa receptor assay (solid phase receptor assay, competition with biotinylated vitronectin); assay type: binding; settings: purified receptor from outdated platelets; 1 nM biotinylated vitronectin; highest concentration tested 1.0 x 10^-4 M
T1 construct: Human fibrinogen receptor (αIIbβ3) was purified from outdated platelets; from tissue; host or cells: outdated (human) platelets
Description: PURIFIED IIb/IIIa RECEPTOR ASSAY
Human fibrinogen receptor (αIIbβ3) was purified from outdated platelets. (Pytela, R., Pierschbacher, M.D., Argraves, S., Suzuki, S., and Rouslahti, E. "Arginine-Glycine-Aspartic acid adhesion receptors", Methods in Enzymology 144(1987):475-489.) Human vitronectin was purified from fresh frozen plasma as described in Yatohgo, T., Izumi, M., Kashiwagi, H., and Hayashi, M., "Novel purification of vitronectin from human plasma by heparin affinity chromatography," Cell Structure and Function 13(1988):281-292. Biotinylated human vitronectin was prepared by coupling NHS-biotin from Pierce Chemical Company (Rockford, IL) to purified vitronectin as previously described. (Charo, I.F., Nannizzi, L., Phillips, D.R., Hsu, M.A., Scarborough, R.M., "Inhibition of fibrinogen binding to GP IIb/IIIa by a GP IIIa peptide", J. Biol. Chem. 266(3)(1991): 1415-1421.) Assay buffer, OPD substrate tablets, and RIA grade BSA were obtained from Sigma (St. Louis, MO). Anti-biotin antibody was obtained from Calbiochem (La Jolla, CA). Linbro microtiter plates were obtained from Flow Labs (McLean, VA). ADP reagent was obtained from Sigma (St. Louis, MO).
This assay is essentially the same reported in Niiya, K., Hodson, E., Bader, R., Byers-Ward, V. Koziol, J.A., Plow, E.F. and Ruggeri, Z.M., "Increased surface expression of the membrane glycoprotein IIb/IIIa complex induced by platelet activation: Relationships to the binding of fibrinogen and platelet aggregation", Blood 70(1987):475-483. The purified human fibrinogen receptor (αIIbβ3) was diluted from stock solutions to 1.0 µg/mL in Tris-buffered saline containing 1.0 mM Ca^++, Mg^++, and Mn^++, pH 7.4 (TBS^+++). The diluted receptor was immediately transferred to Linbro microtiter plates at 100 µL/well (100 ng receptor/well). The plates were sealed and incubated overnight at 4°C to allow the receptor to bind to the wells. All remaining steps were at room temperature. The assay plates were emptied and 200 µL of 1% RIA grade BSA in TBS^+++ (TBS^+++/BSA) were added to block exposed plastic surfaces. Following a 2 hour incubation, the assay plates were washed with TBS^+++ using a 96 well plate washer. Logarithmic serial dilution of the test compound and controls were made starting at a stock concentration of 2 mM and using 2 nM biotinylated vitronectin in TBS^+++/BSA as the diluent. This premixing of labeled ligand with test (or control) ligand, and subsequent transfer of 50 µL aliquots to the assay plate was carried out with a CETUS Propette robot; the final concentration of the labeled ligand was 1 nM and the highest concentration of test compound was 1.0 x 10^-4 M. The competition occurred for two hours after which all wells were washed with a plate washer as before. Affinity purified horseradish peroxidase labeled goat anti-biotin antibody was diluted 1:3000 in TBS^+++/BSA and 125 µL were added to each well. After 30 minutes, the plates were washed and incubated with […] substrate in 100 mM/L citrate buffer, pH 5.0. The plate was read with a microtiter plate reader at a wavelength of 450 nm and when the maximum-binding control wells reached an absorbance of about 1.0, the final A450 were recorded for analysis. The data were analyzed using a macro written for use with the EXCEL™ spreadsheet program. The mean, standard deviation, and %CV were determined for duplicate concentrations. The mean A450 values were normalized to the mean of four maximum-binding controls (no competitor added)(B-MAX). The normalized values were subjected to a four parameter curve fit algorithm, [Robard et al., Int. […]

[2] = target: T2, Human vitronectin receptor (αvβ3) (Homo sapiens, UniProt P05106+P06756); assay: Vitronectin adhesion assay (solid phase receptor assay, competition with biotinylated vitronectin); assay type: binding
T2 construct: Human vitronectin receptor (αvβ3) was purified from human placenta; from tissue; host or cells: human placenta
Procedure: VITRONECTIN ADHESION ASSAY
Human vitronectin receptor (αvβ3) was purified from human placenta as previously described [Pytela et al., Methods in Enzymology, 144:475-489 (1987)]. Human vitronectin was purified from fresh frozen plasma as previously described [Yatohgo et al., Cell Structure and Function, 13:281-292 (1988)]. Biotinylated human vitronectin was prepared by coupling NHS-biotin from Pierce Chemical Company (Rockford, IL) to purified vitronectin as previously described [Charo et al., J. Biol. Chem., 266(3):1415-1421 (1991)]. Assay buffer, OPD substrate tablets, and RIA grade BSA were obtained from Sigma (St. Louis, MO). Anti-biotin antibody was obtained from Calbiochem (La Jolla, CA). Linbro microtiter plates were obtained from Flow Labs (McLean, VA). ADP reagent was obtained from Sigma (St. Louis, MO).
This assay was essentially the same as previously reported [Niiya et al., Blood, 70:475-483 (1987)]. The purified human vitronectin receptor (αvβ3) was diluted from stock solutions to 1.0 µg/mL in Tris-buffered saline containing 1.0 mM Ca^++, Mg^++, and Mn^++, pH 7.4 (TBS^+++). The diluted receptor was immediately transferred to Linbro microtiter plates at 100 µL/well (100 ng receptor/well). The plates were sealed and incubated overnight at 4°C to allow the receptor to bind to the wells. All remaining steps were at room temperature. The assay plates were emptied and 200 µL of 1% RIA grade BSA in TBS^+++ (TBS^+++/BSA) were added to block exposed plastic surfaces. Following a 2 hour incubation, the assay plates were washed with TBS^+++ using a 96 well plate washer. Logarithmic serial dilution of the test compound and controls were made starting at a stock concentration of 2 mM and using 2 nM biotinylated vitronectin in TBS^+++/BSA as the diluent. This premixing of labeled ligand with test (or control) ligand, and subsequent transfer of 50 µL aliquots to the assay plate was carried out with a CETUS Propette robot; the final concentration of the labeled ligand was 1 nM and the highest concentration of test compound was 1.0 x 10^-4 M. The competition occurred for two hours after which all wells were washed with a plate washer as before. Affinity purified horseradish peroxidase labeled goat anti-biotin antibody was diluted 1:3000 in TBS^+++/BSA and 125 µL were added to each well. After 30 minutes, the plates were washed and incubated with OPD/H2O2 substrate in 100 mM/L Citrate buffer, pH 5.0. The plate was read with a microtiter plate reader at a wavelength of 450 nm and when the maximum-binding control wells reached an absorbance of about 1.0, the final A450 were recorded for analysis. The data were analyzed using a macro written for use with the EXCEL™ spreadsheet program. The mean, standard deviation, and %CV were determined for duplicate concentrations. The mean A450 values were normalized to the mean of four maximum-binding controls (no competitor added)(B-MAX). The normalized values were subjected to a four parameter curve fit algorithm [Rodbard et al., Int.

[3] = purified receptor from human placenta; 1 nM biotinylated vitronectin; highest concentration tested 1.0 x 10^-4 M; read-out: AvB3 IC50

SMILES	IC50 [1] [nM]	IC50 [2, 3] [nM]	IC50 ([2]; read-out: AvB3 IC50; purified receptor from human placenta; 1 nM biotinylated vitronectin; highest concentration tested 1.0 x 10^-4 M) [nM]
CC(C)OC(=O)NC(Cc1ccc(NC(=O)c2cccc(Nc3n[nH]c(N)n3)c2)cc1)C(=O)O (racemic) [Example 103, (±) 4-[[[3-[3-amino-1H-1,2,4-triazol-5-yl)amino]-phenyl]carbonyl]amino]-N-[(1-methylethoxy) carbonyl]phenylalanine, trifluoroacetate salt]	3660	269	–
CC(C)OC(=O)NC(Cc1ccc(NC(=O)c2cccc(Nc3noc(N)n3)c2)cc1)C(=O)O (racemic) [Example 104, (±) 4-[[[3-[(5-amino-1,2,4-oxadiazol-3-yl)amino]-phenyl]carbonyl]amino]-N-[(1-methylethoxy)carbonyl]phenylalanine, trifluoroacetate salt]	1600	506	–
CCCCS(=O)(=O)N[C@@H](Cc1ccc(NC(=O)c2cc(NC3=NCCCCC3)cc(C(F)(F)F)c2)cc1)C(=O)O [Example 6, N-(butylsulfonyl)-4-[[[3-[(3,4,5,6-tetrahydro-2H-azepin-7-yl)-amino]-5-(trifluoromethyl)phenyl]carbonyl]-amino]phenylalanine, trifluoroacetate salt]	49.5	0.51	–
CCCCS(=O)(=O)N[C@@H](Cc1ccc(NC(=O)c2cccc(NC3=NCCCCC3)c2)cc1)C(=O)O [Example 10, N-(butylsulfonyl)-4-[[[3-[(3,4,5,6-tetrahydro-2H-azepin-7-yl)-amino]phenyl]carbonyl]amino]phenylalanine, trifluoroacetate salt]	26.9	1.17	–
CCOC(=O)CCc1ccc(CNC(=O)c2cccc(C#N)c2)cc1 [Example 12, ethyl 4-[[[[3-(cyano)phenyl]-carbonyl]amino]methyl]benzenepropanoate]	69200	> 100000	–
N=C(N)c1cccc(C(=O)NCc2ccc(CCC(=O)O)cc2)c1 [Example 19, 4-[[[[3-(aminoiminomethyl)phenyl]carbonyl]amino]methyl]benzenepropanoic acid, trifluoroacetate salt]	1780	> 100000	–
NC(=O)Nc1cccc(C(=O)Nc2ccc(CCC(=O)O)cc2)c1 [Example 24, 4-[[[3-[(aminocarbonyl)amino]phenyl]carbonyl]amino]benzenepropanoic acid]	4530	1220	–
O=C(O)CCc1ccc(NC(=O)c2cccc(NC(=O)NCc3ccccc3)c2)cc1 [Example 28, 4-[[[3-[[[(phenylmethyl)amino]carbonyl]amino]phenyl]carbonyl]amino]benzenepropanoic acid]	10100	555	–
N=C(N)Nc1cccc(C(=O)NCc2ccc(CCC(=O)O)cc2)c1 [Example 29, 4-[[[[3-[(aminoiminomethyl)amino]phenyl]carbonyl]amino]methyl]benzenepropanoic acid, trifluoroacetate salt]	1280	4000	–
CC(CC(=O)O)c1ccc(NC(=O)c2cccc(NC(=N)N)c2)cc1 (stereo not drawn) [Example 31, 4-[[[3-[(aminoiminomethyl)amino]phenyl]. carbonyl]amino]-β-methylbenzenepropanoic acid, trifluoroacetate salt]	66.5	114	–
N=C(N)Nc1cccc(C(=O)Nc2ccc(C(CC(=O)O)c3ccccc3)cc2)c1 (stereo not drawn) [Example 33, 4-[[[3-[(aminoiminomethyl)amino]phenyl]carbonyl]amino]-β-phenylbenzenepropanoic acid, trifluoroacetate salt]	7.37	73.6	–
CCOC(=O)C(Cc1ccc(NC(=O)c2cccc(NC(=N)N)c2)cc1)NC(C)=O (centres unmarked) [Example 34, N-acetyl-4-[[[3-[(aminoiminomethyl)amino]phenyl)carbonyl]amino]phenylalanine ethyl ester, trifluoroacetate salt]	2200	45.2	–
CCCCS(=O)(=O)NC(Cc1ccc(NC(=O)c2cccc(NC(=N)N)c2)cc1)C(=O)OCC (centres unmarked) [Example 41, trifluoroacetate salt]	5700	–	1080
